Values of other authors in US20090318550A1, “Emulsions comprising at least one retinoid and benzoyl peroxide” (GALDERMA RESEARCH & DEVELOPMENT, priority 2006, published 2009).
Read-outs that look alike come from different tables or passages of the source.

How the values were obtained:
[1] = in presence of benzoyl peroxide formulation
[2] = for Decomposition time: 40° C.

Structure (SMILES): COc1ccc(-c2ccc3cc(C(=O)O)ccc3c2)cc1C12CC3CC(CC(C3)C1)C2 [adapalene, 6-(3-(1-adamantyl)-4-methoxyphenyl)-2-naphthoic acid]
- Decomposition of the retinoid ([1]; during 24 hours): no decomposition

Structure (SMILES): O=C(OOC(=O)c1ccccc1)c1ccccc1 [benzoyl peroxide]
- Decomposition time ([2]; in solution in PEG 400 (0.5 mg/g)): 1.4 days
- Decomposition time ([2]; in solution in ethanol): 29 days
- Decomposition time ([2]; in solution in propylene glycol): 53 days
- Decomposition in suspension (dispersed form) ([2]; in water and propylene glycol, storing for 90 days): not decomposed

Structure (SMILES): CC1=C(/C=C/C(C)=C/C=C/C(C)=C/C(=O)O)C(C)(C)CCC1 [tretinoin]
- Decomposition of the retinoid ([1]; 2 hours): 50%
- Decomposition of the retinoid ([1]; 4 hours): 95%
